The source of these data is US20060148858A1, “1, 2-Azole derivatives with hypoglycemic and hypolipidemic activity” (priority 2002, published 2006).

As usually defined, the melting point is the temperature, or range, at which the solid turns liquid. Broadly, the EC50 is the concentration that produces a half-maximal response. A low value points to greater potency.

The test system of data set [1] is KKAY mice. Nature of the data set: Plasma anti-arteriosclerosis index-enhancing action in mice (Test Example 2). The format is in vivo. To be noted: Mus musculus, po, 96 h, 0.005% in powdery diet, four days, percent increase of (HDL cholesterol/total cholesterol)x100, non-treatment group taken as 100%. The method, then:
Test compounds were mixed in a powdery diet (CE-2, Japan Clea) at the concentration of 0.005%, and freely given to KKAY mice (9 to 12 weeks old, 5 mice per group), a model of obese and non-insulin dependent diabetes (type 2 diabetes), for four days. During this period, water was given freely. Blood was sampled from orbital venous plexus and components in plasma separated from blood were determined. Total cholesterol levels were determined by using L type Wako Cholesterol (Wako Pure Chemical Industries, Ltd.). Precipitation reagent for HDL cholesterol (Wako Pure Chemical Industries, Ltd.) was added to a part of the plasma to precipitate non-HDL lipoprotein, and cholesterol (HDL cholesterol) in the resulting supernatant was determined. The plasma anti-arteriosclerosis index [(HDL cholesterol/total cholesterol)×100] was calculated by using these cholesterol levels.
In the Table, “Plasma anti-arteriosclerosis index-enhancing action (%)” represents the percent increase (%) of plasma anti-arteriosclerosis index in the treatment group, when the plasma anti-arteriosclerosis index in the non-treatment group is taken as 100%.

In data set [2] the test system is KKAY mice. The data set can be described thus: Hypoglycemic and hypolipidemic actions in mice (Test Example 1). To be noted: Mus musculus, po, 96 h, 0.005% in powdery diet, four days, non-treated group taken as 100%. The data set is classed as in vivo. How it is done:
Test compounds were mixed in a powdery diet (CE-2, Japan Clea) at the concentration of 0.005%, and freely given to KKAY mice (9 to 12 weeks old, 5 mice in a group), a model of obese and non-insulin dependent diabetes (type 2 diabetes), for four days. During this period, water was given freely. Blood was sampled from orbital venous plexus, and glucose and triglyceride levels in plasma separated from blood were determined enzymatically using L type Wako Glu2 (Wako Pure Chemical Industries, Ltd.) or L type Wako TG·H (Wako Pure Chemical Industries, Ltd.), respectively.
In the table, “hypoglycemic action (%)” means the rate of decrease (%) in the blood glucose level of the treated group when the blood glucose level of the non-treated group is taken as 100%. In addition, the “hypolipidemic action (%)” means the rate of decrease (%) in the blood triglyceride level of the treated group when the blood triglyceride level of the non-treated group is taken as 100%.

Data set [3] has as its target T1, PPARγ-RXRα heterodimer (Homo sapiens, UniProt P37231).
T1 construct: expressed in transfected cells; host or cells: CHO-K1
T1 sequence (P37231 1-477 isoform P37231-2): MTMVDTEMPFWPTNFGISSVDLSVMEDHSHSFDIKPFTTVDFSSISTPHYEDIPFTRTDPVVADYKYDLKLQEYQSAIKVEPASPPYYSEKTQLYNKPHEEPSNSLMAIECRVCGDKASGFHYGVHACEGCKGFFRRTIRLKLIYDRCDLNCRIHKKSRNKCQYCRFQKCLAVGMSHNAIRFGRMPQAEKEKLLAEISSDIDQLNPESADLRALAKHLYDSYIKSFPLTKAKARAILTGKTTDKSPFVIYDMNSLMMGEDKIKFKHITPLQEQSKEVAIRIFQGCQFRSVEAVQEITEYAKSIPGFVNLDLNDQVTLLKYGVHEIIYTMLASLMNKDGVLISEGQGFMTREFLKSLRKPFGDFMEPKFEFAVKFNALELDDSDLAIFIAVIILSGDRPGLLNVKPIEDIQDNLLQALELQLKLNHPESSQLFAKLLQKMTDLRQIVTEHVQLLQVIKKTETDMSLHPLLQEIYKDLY
T1 sequence (P19793 1-462 partner): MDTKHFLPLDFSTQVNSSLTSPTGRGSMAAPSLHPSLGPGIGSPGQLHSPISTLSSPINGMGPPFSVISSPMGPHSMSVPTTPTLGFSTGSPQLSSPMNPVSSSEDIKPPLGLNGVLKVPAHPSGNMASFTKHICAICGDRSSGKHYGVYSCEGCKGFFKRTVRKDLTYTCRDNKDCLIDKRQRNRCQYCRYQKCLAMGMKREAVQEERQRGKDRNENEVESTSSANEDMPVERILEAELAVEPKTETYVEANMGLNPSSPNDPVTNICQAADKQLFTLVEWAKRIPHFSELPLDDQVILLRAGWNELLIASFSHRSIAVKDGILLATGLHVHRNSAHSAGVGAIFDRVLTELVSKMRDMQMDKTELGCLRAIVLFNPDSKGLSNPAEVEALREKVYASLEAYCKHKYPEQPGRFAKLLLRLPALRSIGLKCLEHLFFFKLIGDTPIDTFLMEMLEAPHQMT
The data set can be described thus: PPARγ-RXRα heterodimer ligand activity, luciferase reporter in PPARγ:RXRα:4ERPP/CHO-K1 cells (Test Example 3). The format is cell-based. To be noted: 18-48 hours, concentration for 50% of the maximum fold induction. How it is done: A PPARγ: RXRα: 4ERPP/CHO-K1 cells obtained in Reference Example 8a described later were cultured in HAM F12 medium (produced by Life Technologies, Inc., USA) containing 10% Fetal bovine serum (produced by Life Technologies, Inc., USA) and then inoculated to a 96-well white plate (produced by Corning Costar Corporation, USA) at the density of 2×10^4 cells/well, and cultured in a CO2 gas incubator at 37° C. overnight.
After removing the medium from 96 well white plate, 80 μl of HAM F12 medium containing 0.1% fatty acid-free bovine serum albumin (BSA) and 20 μl of test compound were added, which was cultured in a CO2 gas incubator at 37° C. for 18-48 hours. After removing the medium, 40 μl of PIKKAGENE 7.5 (produced by Wako Pure Chemical Industries, Ltd.) diluted twice with HBSS (HANKS' BALANCED SALT SOLUTION)(produced by BIO WHITTAKER Inc., USA), was added. After stirring, the luciferase activity was determined using 1420 ARVO Multilabel Counter (produced by PerkinElmer Inc., USA).
A fold induction was calculated based on the luciferase activity of each test compound by taking the luciferase activity in the non-treatment group as 1. The values of the test compound concentration and the fold induction were analyzed using PRISM (produced by GraphPad Software Inc. USA) to calculate the EC50 values, the effective concentration of a test compound for 50% of the maximum fold induction.
After a CHO-K1 cell cultured in a 150 cm^2 cell culture flask (750 ml)(produced by Corning Costar Corporation, USA) containing HAM F12 medium (produced by Life Technologies, Inc., USA) supplemented with 10% Fetal Bovine Serum (produced by Life Technologies, Inc., USA) was scraped by treating with 0.5 g/L trypsin-0.2 g/L EDTA (ethylenediaminetetraacetic acid) (produced by Life Technologies, Inc., USA), the cell was washed with PBS (phosphate-buffered saline) (produced by Life Technologies, Inc., USA), centrifuged (1000 rpm, 5 minutes), and then suspended in PBS. Subsequently, a DNA was introduced into the cell under the condition shown below using GENE PULSER (produced by Bio-Rad Laboratories, USA).
Namely, to a cuvette having a 0.4 cm gap, added were 8×10^6 cells and 10 μg of plasmid pVgRXR2-hPPARγ obtained in Reference Example 7a and 10 μg of reporter plasmid pGL3-4ERPP-TK neo obtained in Reference Example 5a, which was subjected to electroporation at the voltage of 0.25 kV under the capacitance of 960 μF. Subsequently, the cell was transferred into a HAM F12 medium containing 10% Fetal Bovine Serum and cultured for 24 hours and then the cell was scraped again and centrifuged, and then suspended in HAM F12 medium containing 10% Fetal Bovine Serum supplemented with 500 μg/ml of GENETICIN (produced by Life Technologies, Inc., USA) and 250 μg/ml of ZEOCIN (produced by Invitrogen, USA). The obtained suspension was diluted to the density of 10^4 cells/ml and inoculated to a 96-well plate (produced by Corning Costar Corporation, USA), which was cultured in a CO2 gas incubator at 37° C., whereby obtaining a GENETICIN- and ZEOCIN-resistant transformant.
Subsequently, after the transformant cell line thus obtained was cultured in a 24-well plate (produced by Corning Costar Corporation, USA), selected was a cell line in which the luciferase was expressed and induced, i.e., PPARγ:RXRα:4ERPP/CHO-K1 cell by addition of 10 μM of pioglitazone hydrochloride.

[4] abbreviates: rate of decrease in blood glucose level, read-out: Hypoglycemic action (%).
Where [5] appears, read: rate of decrease in blood triglyceride level, read-out: Hypolipidemic action (%).

Structures are written as SMILES. Like-named read-outs stand apart in the source and are kept apart here.

Turning to `CCn1cc(CC(=O)O)c(OCCCc2cn(-c3ccc(C(F)(F)F)cn3)nc2C(C)C)n1` [Example 313, [1-ethyl-3-(3-{3-isopropyl-1-[5-(trifluoromethyl)-2-pyridinyl]-1H-pyrazol-4-yl}propoxy)-1H-pyrazol-4-yl]acetic acid], the melting point lay within 99 to 100 °C. In addition, in data set [1], the change in vivo at 0.005 % in diet was found to be 15%. For the same compound, the inhibition in vivo at 0.005 % in diet in data set [2] (setting [4]) was determined as 51%. In addition, the inhibition in vivo at 0.005 % in diet in data set [2] (setting [5]) came to 48%.
For `COc1cccc(CC(=O)O)c1OCCCc1cn(-c2ccc(C#N)nn2)nc1C(C)C` [Example 337, (2-{3-[1-(6-cyanopyridazin-3-yl)-3-isopropyl-1H-pyrazol-4-yl]propoxy}-3-methoxyphenyl)acetic acid], the change in vivo at 0.005 % in diet in data set [1] is 24%. Besides, the figures for the inhibition in vivo at 0.005 % in diet in data set [2] (setting [4]) and in data set [2] (setting [5]) were 44% and 48%, respectively.
`CCC(CC)c1nn(-c2ccc(C(F)(F)F)nn2)cc1CCCOc1c(CC(=O)O)cccc1OC` [Example 339, [2-(3-{3-(1-ethylpropyl)-1-[6-(trifluoromethyl)pyridazin-3-yl]-1H-pyrazol-4-yl}propoxy)-3-methoxyphenyl]acetic acid]: the melting point fell in the range of 81 to 82 °C. In addition, in data set [1], the change in vivo at 0.005 % in diet was 22%. For the same compound, the inhibition in vivo at 0.005 % in diet in data set [2] (setting [4]) stood at 50%. For the same compound, the inhibition in vivo at 0.005 % in diet in data set [2] (setting [5]) was 54%.
The matching figures for `CCCc1nn(-c2ccc(C(F)(F)F)cn2)cc1CCCOc1nn(CC)cc1CC(=O)O` [Example 305, [1-ethyl-3-(3-{3-propyl-1-[5-(trifluoromethyl)-2-pyridinyl]-1H-pyrazol-4-yl}propoxy)-1H-pyrazol-4-yl]acetic acid]: 105 to 106 °C, 22%, 50% and 55%.
As to `CCOc1nn(-c2ccc(C(F)(F)F)cn2)cc1CCCOc1nn(CC)cc1CC(=O)O` [Example 335, [3-(3-{3-ethoxy-1-[5-(trifluoromethyl)-2-pyridinyl]-1H-pyrazol-4-yl}propoxy)-1-ethyl-1H-pyrazol-4-yl]acetic acid], the melting point lay within 108 to 109 °C. In data set [1], the change in vivo at 0.005 % in diet was 12%.
The like results for `CCn1ncc(CC(=O)O)c1OCCCc1cn(-c2ccc(C(F)(F)F)cn2)nc1C(C)C` [Example 322, [1-ethyl-5-(3-{3-isopropyl-1-[5-(trifluoromethyl)-2-pyridinyl]-1H-pyrazol-4-yl}propoxy)-1H-pyrazol-4-yl]acetic acid] were, in that order, 120 to 121 °C and 14%.
The compound `CCOc1cccc(CC(=O)O)c1OCCCc1cn(-c2ccc(C(F)(F)F)cn2)nc1C(C)C` [Example 300, [3-ethoxy-2-(3-{3-isopropyl-1-[5-(trifluoromethyl)-2-pyridinyl]-1H-pyrazol-4-yl}propoxy)phenyl]acetic acid] showed a melting point of 141 to 142 °C. Moreover, the change in vivo at 0.005 % in diet in data set [1] is 12%. Moreover, the inhibition in vivo at 0.005 % in diet in data set [2] (setting [4]) was 36%. Moreover, in data set [2] (setting [5]), the inhibition in vivo at 0.005 % in diet is 39%.
With `CC(C)c1nn(-c2ccc(C(F)(F)F)cn2)cc1CCCOc1c(CC(=O)O)cnn1C` [Example 318, [5-(3-{3-isopropyl-1-[5-(trifluoromethyl)-2-pyridinyl]-1H-pyrazol-4-yl}propoxy)-1-methyl-1H-pyrazol-4-yl]acetic acid], the melting point lay in the range of 146 to 148 °C. The change in vivo at 0.005 % in diet in data set [1] is 22%.
In turn, `CC(C)c1nn(-c2ccc(C(F)(F)F)cn2)cc1CCCOc1nn(C)cc1CC(=O)O` [Example 299, [3-(3-{3-isopropyl-1-[5-(trifluoromethyl)-2-pyridinyl]-1H-pyrazol-4-yl}propoxy)-1-methyl-1H-pyrazol-4-yl]acetic acid] returned a melting point of 122 to 123 °C. In addition, in data set [1], the change in vivo at 0.005 % in diet is 11%.
In turn, `CCC(C)c1nn(-c2ccc(C(F)(F)F)cn2)cc1CCCOc1c(CC(=O)O)cccc1OC` (stereo not shown) [Example 216, [3-methoxy-2-(3-{3-(1-methylpropyl)-1-[5-(trifluoromethyl)-2-pyridyl]-1H-pyrazol-4-yl}propoxy)phenyl]acetic acid] registered a melting point of 117 to 118 °C. The concentration for a half-maximal effect (EC50) in data set [3] was found to be 18 nM. The inhibition in vivo at 0.005 % in diet in data set [2] (setting [4]) is 46%. Also, in data set [2] (setting [5]), the inhibition in vivo at 0.005 % in diet came out at 61%.
